Assay results: PMC12549564, “A thermo-sensitive peptide hydrogel loaded with paclitaxel and antimony nanosheets for synergistic photothermal-chemotherapeutic treatment of breast cancer” (Frontiers in Pharmacology, 2025)

How the values were obtained:
Type in all cases: physicochemical
[1] = PTX release from hydrogel in vitro; settings: hydrogel 20 mg/mL TSP-5, 2 mg/mL PTX, 0.6 mg/mL AM, PBS pH 7.4, 37 °C, 120 rpm, 7 days, HPLC, n = 3
Method: Gel sample (100 μL; 20 mg/mL TSP-5, 2 mg/mL PTX, 0.6 mg/mL AM) was prepared at 37 °C in a 1.5 mL EP tube. PBS (pH 7.4) was used to carefully wash the surface of the sample, and the cleaning solution was collected. The content of PTX not encapsulated was then determined by HPLC, and the encapsulation rate was calculated according to the formula: Encapsulation rate (%) = (PTX total –PTX in cleaning solution )/PTX total × 100%.
1 mL PBS (pH 7.4) was added as release medium, and the EP tube was placed in a thermostatic oscillator (120 rpm, 37 °C). All the release solution were carefully collected at different time points (0.5, 2, 4, 8, 12, 24, 48, 72, 96, 120, 144 and168 h), and the same volume of fresh release media was added. For the laser group, samples were irradiated (808 nm, 1 W/cm^2, 5 min) before each sampling. PTX release was quantified by HPLC.

[2] = Concentration study: solubility of TSP-5 in water; settings: for Solubility of TSP-5: aqueous solution, pH 7.4, 25 °C
Method: Concentration study: At room temperature (25 °C), aqueous solutions of TSP-5 was prepared at concentrations of 15 mg/mL, 20 mg/mL, 25 mg/mL and 30 mg/mL, respectively, and adjusted to pH 7.4 with NaOH (0.5 M) and HCl (0.1 M). Gel formation was assessed via vial inversion.

[3] = Temperature study: gelation of TSP-5, vial inversion; settings: for Gelation state: TSP-5 aqueous solution 20 mg/mL
Method: (§1) The gelation behavior of TSP-5 was evaluated at various concentrations, temperatures, and AM concentrations. Gel formation was assessed via vial inversion.
(§2) Temperature study: Aqueous solutions of TSP-5 (20 mg/mL) were prepared and then placed in water bath at 30 °C, 37 °C, 40 °C, 45 °C, 50 °C and 55 °C respectively to observe the gelatinization.

[4] = AM concentration study: gelation time of TSP-5 loaded with AM; settings: TSP-5 20 mg/mL
Method: as §1
AM concentration study: Aqueous solutions of TSP-5 (20 mg/mL) was prepared at 25 °C and AM suspension of different concentrations (0.2, 0.4, 0.6, 0.8 and 1.0 mg/mL) was added. The sample was then placed in a water bath at 37 °C and 45 °C respectively to observe the gelatinization.

[5] = DLS particle size of TSP-5 hydrogel at different temperatures
[6] = Temperature study: gelation of TSP-5, vial inversion; parameters: key: L: liquid; IS: insoluble; SS: slightly soluble; settings: TSP-5 20 mg/mL, water bath 30 °C
Method: as §1, §2

[7] = as above; parameters: key: L: liquid; VL: viscous liquid; SG: stable gel; UG: unstable gel; settings: TSP-5 20 mg/mL, water bath 40 °C
Method: as §1, §2

[8] = TSP-5 20 mg/mL, water bath 37 °C

## CC(=O)O[C@H]1C(=O)[C@@]2(C)[C@H]([C@H](OC(=O)c3ccccc3)[C@]3(O)C[C@H](OC(=O)[C@H](O)[C@@H](NC(=O)c4ccccc4)c4ccccc4)C(C)=C1C3(C)C)[C@]1(OC(C)=O)CO[C@@H]1C[C@@H]2O [PTX, Paclitaxel]
[1]; with laser (808 nm, 1 W/cm^2, 5 min before each sampling)
  Cumulative release of PTX from the hydrogel: 61.83%
[1]; without laser
  Cumulative release of PTX from the hydrogel: 42.81%

## Ac-DDIIIVPGVGK-NH2 [TSP-5, Ac-DDIII-VPGVG-K-NH2]
[2]; peptide 15 mg/mL
  Solubility of TSP-5: L (liquid)
[2]; peptide 20 mg/mL
  Solubility of TSP-5: L (liquid)
[2]; peptide 25 mg/mL
  Solubility of TSP-5: SS (slightly soluble)
[2]; peptide 30 mg/mL
  Solubility of TSP-5: IS (insoluble)
[2]; pH 7.4, 15–30 mg/mL, 25 °C, vial inversion
  Hydrogel formation: no hydrogel formation was observed
[3]; [8]
  Gelation: time given for SG (stable gel): 32 min
  Gelation: time given for VL (viscous liquid): 10 min
[3]; pH 7.4, 37 °C
  Gelation state: stable hydrogel
[3]; pH 7.4, 45 °C
  Gelation state: completely viscous liquid
[4]; AM 0.2 mg/mL, 37 °C
  Gelation time: SG (stable gel): 40 min
  Gelation time: VL (viscous liquid): 15 min
[4]; AM 0.2 mg/mL, 45 °C
  Gelation time: UG (unstable gel): 39 min
  Gelation time: VL (viscous liquid): 3 min
[4]; AM 0.4 mg/mL, 37 °C
  Gelation time: SG (stable gel): 33 min
  Gelation time: VL (viscous liquid): 14 min
[4]; AM 0.4 mg/mL, 45 °C
  Gelation time: UG (unstable gel): 33 min
  Gelation time: VL (viscous liquid): 4 min
[4]; AM 0.6 mg/mL, 37 °C
  Gelation time: SG (stable gel): 30 min
  Gelation time: VL (viscous liquid): 10 min
[4]; AM 0.6 mg/mL, 45 °C
  Gelation time: UG (unstable gel): 30 min
  Gelation time: VL (viscous liquid): 2 min
[4]; AM 0.8 mg/mL, 37 °C
  Gelation time: SG (stable gel): 30 min
  Gelation time: VL (viscous liquid): 9 min
[4]; AM 0.8 mg/mL, 45 °C
  Gelation time: UG (unstable gel): 30 min
  Gelation time: VL (viscous liquid): 2 min
[5]; 37 °C
  Hydrodynamic size (DLS): ~1,300 nm
[5]; 45 °C
  Hydrodynamic size (DLS): ~350 nm
[6]
  Gelation state: L
[7]
  Gelation state: SG
